Measured values from patent US20010039246A1, “Composition and method for early bloom thinning of fruit trees and controlling cracking of fruits” (priority 2000, published 2001).
Read-outs that look alike come from different tables or passages of the source.

Columns and labels:
peach trees = conditions: cited from earlier work
‘Gala’ apple trees = assay: Thinning and phytotoxicity of lipid, copper and their mixture (Example 5); assay type: in vivo; conditions: for Russet / Leaf damage / Thinning: ‘Gala’ apples, aqueous cupric sulfate, sprayed at 5% FB; for Russet: fruit russet at harvest
Description: Emulsion was prepared with glyceride type of lipids as in Example 2 and diluted to 2% active ingredients. Cupric sulfate was added to the diluted emulsion to give mixtures containing 0, 50, 100, and 150 g metallic copper per 100 L, respectively. Aqueous solutions containing 0, 50, 100, and 150 g metallic copper per 100 L were also prepared seperately. Emulsion and copper mixtures or cupric sulfate solutions were sprayed on 12 year-old ‘Gala’ apple trees at 5% FB. Each treatment consisted of 4 trees (replications) in a row (oriented from south to north) and 2 shoots (one from the east and another from the west side of the canopy) were selected from each of the 4 trees for evaluation. Fruit set was measured 2 months after FB and leaf damage were evaluated 1, 2, and 3 weeks after application. Fruit russet was assessed at harvest and return of bloom was evaluated the following season.

[1] = tested on: ‘Feng Huang’ peaches, ‘Delicious’ apples, and ‘Bing’ cherries; assay: Lipids and surfactants for bloom thinning, all cultivars of Example 4; assay type: in vivo; conditions: for damage to leaf buds: surfactant alone at 0.6% or 1%; for thinning effect: surfactant alone at the application rate (0.2%, 0.6%, 1%), sprayed at 5% full bloom
Description: Fruit trees of ‘Feng Huang’ peaches, ‘Delicious’ apples, and ‘Bing’ cherries all were sprayed at 5% full bloom. Each treatment (plot) consisted of 4 trees, which received standard commercial management both before and after oil application.

‘Delicious’ apple = assay: Lipids and surfactants for bloom thinning, fruit set and leaf bud damage (Example 4); assay type: in vivo; conditions: applied at 5% full bloom
‘Feng Huang’ peach = assay: as above; assay type: in vivo; conditions: applied at 5% full bloom
Description: (§1) […] Each treatment (plot) consisted of 4 trees, which received standard commercial management both before and after oil application.

‘Bing’ cherry trees = assay: as above; assay type: in vivo; conditions: sprayed at 5% full bloom
Description: as §1

Compound	damage to leaf buds [1]	thinning effect [1]	Fruit set (‘Delicious’ apple; surfactant solution 0.2%) [%]	leaf bud damage (‘Delicious’ apple; surfactant solution 0.2%) [%]	Fruit set (‘Delicious’ apple; surfactant solution 0.6%) [%]	leaf bud damage (‘Delicious’ apple; surfactant solution 0.6%) [%]	Fruit set (‘Delicious’ apple; surfactant solution 1.0%) [%]	leaf bud damage (‘Delicious’ apple; surfactant solution 1.0%) [%]	Fruit set (‘Feng Huang’ peach; surfactant solution 0.2%) [%]	leaf bud damage (‘Feng Huang’ peach; surfactant solution 0.2%) [%]	Fruit set (‘Feng Huang’ peach; surfactant solution 0.6%) [%]	leaf bud damage (‘Feng Huang’ peach; surfactant solution 0.6%) [%]	Fruit set (‘Feng Huang’ peach; surfactant solution 1.0%) [%]	leaf bud damage (‘Feng Huang’ peach; surfactant solution 1.0%) [%]	Fruit set (‘Bing’ cherry trees; surfactant solution 0.2%) [%]	leaf bud damage (‘Bing’ cherry trees; surfactant solution 0.2%) [%]	Fruit set (‘Bing’ cherry trees; surfactant solution 0.6%) [%]	leaf bud damage (‘Bing’ cherry trees; surfactant solution 0.6%) [%]	Fruit set (‘Bing’ cherry trees; surfactant solution 1.0%) [%]	leaf bud damage (‘Bing’ cherry trees; surfactant solution 1.0%) [%]	also measured
alkaryl polyoxyethylene alcohols	–	–	–	–	–	–	–	–	–	–	–	–	–	–	–	–	–	–	–	–	thinning effect (peach trees; 2%): not effective thinners
O=S(=O)([O-])[O-].[Cu+2] [Cupric sulfate]	–	–	–	–	–	–	–	–	–	–	–	–	–	–	–	–	–	–	–	–	thinning and phytotoxicity (‘Gala’ apple trees; ‘Gala’ apple, 50, 100, 150 g metallic copper per 100 L): both thinning and phytotoxicity in a concentration dependent manner; Russet (‘Gala’ apple trees; 50 g metallic copper/100 L): 0%; Russet (‘Gala’ apple trees; 100 g metallic copper/100 L): 35%; Russet (‘Gala’ apple trees; 150 g metallic copper/100 L): 64%; Leaf damage (‘Gala’ apple trees; 50 g metallic copper/100 L): 0%; Thinning (‘Gala’ apple trees; 50 g metallic copper/100 L): 87%; Leaf damage (‘Gala’ apple trees; 100 g metallic copper/100 L): 9%; Thinning (‘Gala’ apple trees; 100 g metallic copper/100 L): 64%; Leaf damage (‘Gala’ apple trees; 150 g metallic copper/100 L): 24%; Thinning (‘Gala’ apple trees; 150 g metallic copper/100 L): 43%
TWEEN 60	caused some damage to leaf buds	not effective in thinning	58	0	65	7	61	13	46	0	42	5	38	18	96	0	92	8	87	17	–
N,N-bis 2-[omega (hydroxypolyoxyethylene/polyoxypropylene)ethyl alkylamine] [Armothin]	–	–	–	–	–	–	–	–	–	–	–	–	–	–	–	–	–	–	–	–	thinning effect (peach trees; 1%): not effective thinners
TRITON X-100	caused some damage to leaf buds	not effective in thinning	62	0	64	8	69	15	41	0	42	6	38	20	94	0	83	10	90	18	–
